According to PubChem BioAssay AID248 (DTP/NCI, 2004):
Toxic doses and inconclusive results are not listed.

Tested on: L1210 leukemia ip in BDF1 mice, survival T/C
Test: NCI In Vivo Anticancer Drug Screen. Data for tumor model L1210 Leukemia (intraperitoneal) in B6D2F1 (BDF1) mice
Settings: higher = longer survival
Method in brief: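 Survival endpoint. Drug-treated group vs vehicle group, expressed as T divided by C. Tumor passaged by transplantation.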

[1] = endpoint: mean survival time, dose: 100.0 mg/kg/injection, schedule: Q04DX003 (ip), vehicle: saline with Tween-80
[2] = endpoint: mean survival time, dose: 200.0 mg/kg/injection, schedule: Q04DX003 (ip), vehicle: saline with Tween-80
[3] = endpoint: mean survival time, dose: 400.0 mg/kg/injection, schedule: Q04DX003 (ip), vehicle: saline with Tween-80

COC(=O)c1cccc(N=NN(C)C)c1
T/C (endpoint: mean survival time, dose: 50.0 mg/kg/injection, schedule: Q01DX009 (ip), vehicle: Klucel (hydroxypropylcellulose) (HPC)): 105 % of control
T/C (endpoint: mean survival time, dose: 100.0 mg/kg/injection, schedule: Q01DX009 (ip), vehicle: Klucel (hydroxypropylcellulose) (HPC)): 119 % of control
T/C (endpoint: mean survival time, dose: 200.0 mg/kg/injection, schedule: Q01DX009 (ip), vehicle: Klucel (hydroxypropylcellulose) (HPC)): 108 % of control
T/C (endpoint: median survival time, dose: 23.0 mg/kg/injection, schedule: Q01DX009 (ip), vehicle: steriod suspending solution): 110 % of control
T/C (endpoint: median survival time, dose: 65.0 mg/kg/injection, schedule: Q01DX001 (ip), vehicle: steriod suspending solution): 100 % of control
T/C (endpoint: median survival time, dose: 65.0 mg/kg/injection, schedule: Q04DX003 (ip), vehicle: steriod suspending solution): 105 % of control
T/C (endpoint: median survival time, dose: 108.0 mg/kg/injection, schedule: Q01DX001 (ip), vehicle: steriod suspending solution): 100 % of control
T/C (endpoint: median survival time, dose: 108.0 mg/kg/injection, schedule: Q04DX003 (ip), vehicle: steriod suspending solution): 110 % of control
T/C (endpoint: median survival time, dose: 180.0 mg/kg/injection, schedule: Q01DX001 (ip), vehicle: steriod suspending solution): 110 % of control
T/C (endpoint: median survival time, dose: 300.0 mg/kg/injection, schedule: Q01DX001 (ip), vehicle: steriod suspending solution): 110 % of control
T/C (endpoint: median survival time, dose: 833.0 mg/kg/injection, schedule: Q01DX001 (ip), vehicle: steriod suspending solution): 100 % of control

CC(=O)OCC1OC(N2C(=O)/C(=C/c3cccs3)SC2=S)C(OC(C)=O)C(OC(C)=O)C1OC(C)=O (stereo unspecified)
T/C (endpoint: mean survival time, dose: 25.0 mg/kg/injection, schedule: Q01DX005 (ip), vehicle: other): 96 % of control
T/C (endpoint: mean survival time, dose: 50.0 mg/kg/injection, schedule: Q01DX005 (ip), vehicle: other): 100 % of control
T/C (endpoint: mean survival time, dose: 100.0 mg/kg/injection, schedule: Q01DX005 (ip), vehicle: other): 97 % of control
T/C (endpoint: mean survival time, dose: 200.0 mg/kg/injection, schedule: Q01DX005 (ip), vehicle: other): 88 % of control

Cc1cccc(C(=O)NC(=S)Nc2ccccc2)c1
T/C (endpoint: mean survival time, dose: 5.0 mg/kg/injection, schedule: Q01DX001 (ip), vehicle: saline): 97 % of control
T/C (endpoint: mean survival time, dose: 10.0 mg/kg/injection, schedule: Q01DX001 (ip), vehicle: saline): 103 % of control
T/C (endpoint: mean survival time, dose: 20.0 mg/kg/injection, schedule: Q01DX001 (ip), vehicle: saline): 97 % of control

Cc1ccc(NC2=C(Cl)C(=O)C(Nc3ccc(C)cc3)=C(Cl)C2=O)cc1
T/C (endpoint: mean survival time, dose: 50.0 mg/kg/injection, schedule: Q01DX001 (ip), vehicle: carboxymethylcellulose (CMC)): 97 % of control
T/C (endpoint: mean survival time, dose: 100.0 mg/kg/injection, schedule: Q01DX001 (ip), vehicle: carboxymethylcellulose (CMC)): 95 % of control
T/C (endpoint: mean survival time, dose: 200.0 mg/kg/injection, schedule: Q01DX001 (ip), vehicle: carboxymethylcellulose (CMC)): 90 % of control
T/C (endpoint: mean survival time, dose: 400.0 mg/kg/injection, schedule: Q01DX001 (ip), vehicle: carboxymethylcellulose (CMC)): 92 % of control

O=C(Cl)c1cc(Cl)nc2c(Cl)cc(Cl)cc12
T/C (endpoint: mean survival time, dose: 75.0 mg/kg/injection, schedule: Q01DX001 (ip), vehicle: saline): 86 % of control
T/C (endpoint: mean survival time, dose: 150.0 mg/kg/injection, schedule: Q01DX001 (ip), vehicle: saline): 94 % of control
T/C (endpoint: mean survival time, dose: 300.0 mg/kg/injection, schedule: Q01DX001 (ip), vehicle: saline): 90 % of control

COC(=O)c1ccc(COc2ccc([N+](=O)[O-])cc2Cl)cc1
T/C (endpoint: mean survival time, dose: 100.0 mg/kg/injection, schedule: Q01DX009 (ip), vehicle: saline sonified): 94 % of control
T/C [1]: 96 % of control
T/C (endpoint: mean survival time, dose: 200.0 mg/kg/injection, schedule: Q01DX009 (ip), vehicle: saline sonified): 96 % of control
T/C [2]: 94 % of control
T/C (endpoint: mean survival time, dose: 400.0 mg/kg/injection, schedule: Q01DX009 (ip), vehicle: saline sonified): 94 % of control
T/C [3]: 96 % of control

CS(=O)(=O)OCCN(CCOS(C)(=O)=O)c1ccc(N=O)c(F)c1
T/C (endpoint: mean survival time, dose: 7.0 mg/kg/injection, schedule: Q01DX001 (ip), vehicle: saline): 151 % of control
T/C (endpoint: mean survival time, dose: 40.0 mg/kg/injection, schedule: Q01DX001 (ip), vehicle: saline): 98 % of control
T/C (endpoint: mean survival time, dose: 80.0 mg/kg/injection, schedule: Q01DX001 (ip), vehicle: saline): 93 % of control

O=C(OCCOc1ccc(Cl)cc1Cl)c1cc(I)cc(I)c1I
T/C (endpoint: mean survival time, dose: 100.0 mg/kg/injection, schedule: Q04DX002 (ip), vehicle: Klucel (hydroxypropylcellulose) (HPC)): 111 % of control
T/C (endpoint: mean survival time, dose: 200.0 mg/kg/injection, schedule: Q04DX002 (ip), vehicle: Klucel (hydroxypropylcellulose) (HPC)): 101 % of control
T/C (endpoint: mean survival time, dose: 400.0 mg/kg/injection, schedule: Q04DX002 (ip), vehicle: Klucel (hydroxypropylcellulose) (HPC)): 104 % of control

CCCCCCCCCCCCCCCCN(C)S(=O)(=O)c1ccc2sc(SC)[n+](C)c2c1 (tested in a mixture with another compound)
T/C (endpoint: mean survival time, dose: 100.0 mg/kg/injection, schedule: Q01DX009 (ip), vehicle: saline with Tween-80): 94 % of control
T/C [1]: 98 % of control
T/C (endpoint: mean survival time, dose: 200.0 mg/kg/injection, schedule: Q01DX009 (ip), vehicle: saline with Tween-80): 94 % of control
T/C [2]: 102 % of control
T/C (endpoint: mean survival time, dose: 400.0 mg/kg/injection, schedule: Q01DX009 (ip), vehicle: saline with Tween-80): 102 % of control
T/C [3]: 96 % of control

S=C1CC2CCCC(C2)N1 (stereo unspecified)
T/C (endpoint: mean survival time, dose: 10.0 mg/kg/injection, schedule: Q01DX001 (ip), vehicle: carboxymethylcellulose (CMC)): 93 % of control
T/C (endpoint: mean survival time, dose: 20.0 mg/kg/injection, schedule: Q01DX001 (ip), vehicle: carboxymethylcellulose (CMC)): 93 % of control
T/C (endpoint: mean survival time, dose: 80.0 mg/kg/injection, schedule: Q01DX001 (ip), vehicle: carboxymethylcellulose (CMC)): 100 % of control
